# Data from PMC5989226 (Nature Communications, 2018).
# pKd: −log10 of the molar value.
# Experiments:
# Format in all cases: binding
# [1] = target: T1, DELAY OF GERMINATION1 (DOG1) (Arabidopsis thaliana, UniProt A0SVK0, H245A); experiment: UV-visible absorption hemin titration ([…] nm)
# T1 construct: full-length, N-terminal His6-tagged
# [2] = target: T2, DELAY OF GERMINATION1 (DOG1) (Arabidopsis thaliana, UniProt A0SVK0); experiment: UV-visible absorption titration of apo-DOG1 with hemin (Soret peak, […] nm), […] fit
# T2 sequence (A0SVK0 1-291): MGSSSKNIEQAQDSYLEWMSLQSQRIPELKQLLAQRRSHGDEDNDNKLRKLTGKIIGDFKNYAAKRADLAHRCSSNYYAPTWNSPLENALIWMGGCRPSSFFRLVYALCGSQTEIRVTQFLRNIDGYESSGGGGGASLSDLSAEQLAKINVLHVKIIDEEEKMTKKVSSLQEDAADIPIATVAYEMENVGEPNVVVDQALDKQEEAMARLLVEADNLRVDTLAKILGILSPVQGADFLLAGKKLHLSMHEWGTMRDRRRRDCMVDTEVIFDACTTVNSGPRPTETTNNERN
# [3] = target: T3, DELAY OF GERMINATION1 (DOG1) (Arabidopsis thaliana, UniProt A0SVK0, H245A/H249A); experiment: UV-visible absorption hemin titration ([…] nm)
# T3 construct: full-length, N-terminal His6-tagged
# T3 sequence (A0SVK0 whole entry H245A/H249A): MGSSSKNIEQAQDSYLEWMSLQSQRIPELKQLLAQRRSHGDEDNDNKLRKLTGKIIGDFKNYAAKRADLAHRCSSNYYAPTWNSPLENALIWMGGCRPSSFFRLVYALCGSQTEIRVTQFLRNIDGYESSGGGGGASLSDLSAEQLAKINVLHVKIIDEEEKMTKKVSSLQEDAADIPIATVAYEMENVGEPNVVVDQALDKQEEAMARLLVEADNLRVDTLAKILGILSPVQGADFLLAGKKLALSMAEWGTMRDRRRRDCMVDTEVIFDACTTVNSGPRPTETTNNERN
# T1 sequence (A0SVK0 whole entry H245A): as the sequence (A0SVK0 whole entry H245A/H249A) above, with A249H counted along it
compound,measurement,setting,value
C=CC1=C(C)C2=Cc3c(C=C)c(C)c4[n]3[Fe]([Cl])[n]3c(c(C)c(CCC(=O)O)c3=CC3=NC(=C4)C(C)=C3CCC(=O)O)=CC1=N2 [hemin],pKd,[1],6.89
same,pKd,[2],7.23
same,pKd,[3],6.04
